Source: publication PMC10363032 (Cancer Chemotherapy and Pharmacology, 2023)

Assays:
clinical = conditions: human, in vivo, 225 mg
Method: PK parameters were derived using non-compartmental methods with Phoenix® WinNonlin® version 6.4 (Certara, LP, Princeton, NJ, USA). All descriptive and inferential statistical computations were performed using SAS® version 9.1 (SAS Institute, Cary, NC, USA).

Wee1 = tested on: Wee1; design: method as in PMID 25964244, PMID 19887545; conditions: read-out: half-maximal inhibitory concentration (IC50); cited from earlier work
[1] = human, in vivo
Method: (§1) Safety was appraised throughout the study by the assessment of clinical and laboratory adverse events (AEs; graded by Common Terminology Criteria for Adverse Events [CTCAE], version 4.03), physical examination, and evaluation of vital signs and laboratory data (clinical chemistry and hematology).
(§2) Patients were evaluated according to the treatment received.

CYP3A = conditions: read-out: IC50, reversible inhibition of CYP3A; ref AstraZeneca, data on file, 2020; 16; cited from earlier work
[2] = safety and tolerability, adverse events (CTCAE version 4.03) in patients
Method: as §1, §2

[3] = Adavosertib n = 30, Adavosertib + cocktail n = 26

C=CCn1c(=O)c2cnc(Nc3ccc(N4CCN(C)CC4)cc3)nc2n1-c1cccc(C(C)(C)O)n1 [adavosertib]
CLss/F, arithmetic mean (SD) (clinical): 38.0 (12.11) L/h
CLss/F, median (minimum, maximum) (clinical): 36.9 (24.3, 63.5) L/h
Tmax (clinical): 3 h
intra-patient variability for AUC0–12 and Cmax (clinical): < 10%
AUC(0-t) (clinical; AUC0–12, arithmetic mean (SD)): 12.7 µM·h
AUC(0-t) (clinical; AUC0–12, geometric mean): 12.2 µM·h
AUC(0-t) (clinical; AUC0–12, median (minimum, maximum)): 12 µM·h
Cmax (clinical; arithmetic mean (SD)): 1490 nM
Cmax (clinical; geometric mean): 1440 nM
Cmax (clinical; median (minimum, maximum)): 1420 nM
IC50 (Wee1): 0.0052 µM
AEs with an outcome of death [1]: No AEs with an outcome of death were observed
IC50 (CYP3A): 14 µM
Acute kidney injury (causally related), any grade [2, 3]: 1 (3.3) Number of patients (%)
Acute kidney injury (causally related), grade ≥3 [2, 3]: 1 ( 3. 3) Number of patients (%)
Anemia (causally related), any grade [2, 3]: 0 Number of patients (%)
Anemia (causally related), grade ≥3 [2, 3]: 0 Number of patients (%)
Any AE (causally related), any grade [2, 3]: 11 (36.7) Number of patients (%)
Any AE (causally related), grade ≥3 [2, 3]: 4 (13.3) Number of patients (%)
Blood and lymphatic system disorders (causally related), any grade [2, 3]: 2 ( 6. 7) Number of patients (%)
Blood and lymphatic system disorders (causally related), grade ≥3 [2, 3]: 1 (3.3) Number of patients (%)
Blood creatinine increased (causally related), any grade [2, 3]: 0 Number of patients (%)
Blood creatinine increased (causally related), grade ≥3 [2, 3]: 0 Number of patients (%)
Decreased appetite (causally related), any grade [2, 3]: 0 Number of patients (%)
Decreased appetite (causally related), grade ≥3 [2, 3]: 0 Number of patients (%)
Dehydration (causally related), any grade [2, 3]: 1 (3.3) Number of patients (%)
Dehydration (causally related), grade ≥3 [2, 3]: 1 (3.3) Number of patients (%)
Diarrhea (causally related), any grade [2, 3]: 10 (33.3) Number of patients (%)
Diarrhea (causally related), grade ≥3 [2, 3]: 3 (10.0) Number of patients (%)
Dizziness (causally related), any grade [2, 3]: 0 Number of patients (%)
Dizziness (causally related), grade ≥3 [2, 3]: 0 Number of patients (%)
Fatigue (causally related), any grade [2, 3]: 0 Number of patients (%)
Fatigue (causally related), grade ≥3 [2, 3]: 0 Number of patients (%)
Flushing (causally related), any grade [2, 3]: 0 Number of patients (%)
Flushing (causally related), grade ≥3 [2, 3]: 0 Number of patients (%)
Gastrointestinal disorders (causally related), any grade [2, 3]: 11 (36.7) Number of patients (%)
Gastrointestinal disorders (causally related), grade ≥3 [2, 3]: 3 (10.0) Number of patients (%)
General disorders and administration site conditions (causally related), any grade [2, 3]: 0 Number of patients (%)
General disorders and administration site conditions (causally related), grade ≥3 [2, 3]: 0 Number of patients (%)
Hypokalemia (causally related), any grade [2, 3]: 1 (3.3) Number of patients (%)
Hypokalemia (causally related), grade ≥3 [2, 3]: 1 (3.3) Number of patients (%)
Investigations (causally related), any grade [2, 3]: 2 (6.7) Number of patients (%)
Investigations (causally related), grade ≥3 [2, 3]: 0 Number of patients (%)
Metabolism and nutrition disorders (causally related), any grade [2, 3]: 2 (6.7) Number of patients (%)
Metabolism and nutrition disorders (causally related), grade ≥3 [2, 3]: 2 ( 6. 7) Number of patients (%)
Muscle spasms (causally related), any grade [2, 3]: 0 Number of patients (%)
Muscle spasms (causally related), grade ≥3 [2, 3]: 0 Number of patients (%)
Musculoskeletal and connective tissue disorders (causally related), any grade [2, 3]: 0 Number of patients (%)
Musculoskeletal and connective tissue disorders (causally related), grade ≥3 [2, 3]: 0 Number of patients (%)
Nasal ulcer (causally related), any grade [2, 3]: 0 Number of patients (%)
Nasal ulcer (causally related), grade ≥3 [2, 3]: 0 Number of patients (%)
Nausea (causally related), any grade [2, 3]: 3 (10.0) Number of patients (%)
Nausea (causally related), grade ≥3 [2, 3]: 1 (3.3) Number of patients (%)
Nervous system disorders (causally related), any grade [2, 3]: 0 Number of patients (%)
Nervous system disorders (causally related), grade ≥3 [2, 3]: 0 Number of patients (%)
Neutropenia (causally related), any grade [2, 3]: 1 (3.3) Number of patients (%)
Neutropenia (causally related), grade ≥3 [2, 3]: 1 (3.3) Number of patients (%)
Pancreatitis (causally related), any grade [2, 3]: 1 (3.3) Number of patients (%)
Pancreatitis (causally related), grade ≥3 [2, 3]: 1 (3.3) Number of patients (%)
Renal and urinary disorders (causally related), any grade [2, 3]: 1 (3.3) Number of patients (%)
Renal and urinary disorders (causally related), grade ≥3 [2, 3]: 1 (3.3) Number of patients (%)
Respiratory, thoracic and mediastinal disorders (causally related), any grade [2, 3]: 0 Number of patients (%)
Respiratory, thoracic and mediastinal disorders (causally related), grade ≥3 [2, 3]: 0 Number of patients (%)
Stomatitis (causally related), any grade [2, 3]: 0 Number of patients (%)
Stomatitis (causally related), grade ≥3 [2, 3]: 0 Number of patients (%)
Thrombocytopenia (causally related), any grade [2, 3]: 1 (3.3) Number of patients (%)
Thrombocytopenia (causally related), grade ≥3 [2, 3]: 0 Number of patients (%)
Vascular disorders (causally related), any grade [2, 3]: 0 Number of patients (%)
Vascular disorders (causally related), grade ≥3 [2, 3]: 0 Number of patients (%)
Vomiting (causally related), any grade [2, 3]: 6 (20.0) Number of patients (%)
Vomiting (causally related), grade ≥3 [2, 3]: 1 (3.3) Number of patients (%)
Weight decreased (causally related), any grade [2, 3]: 2 (6.7) Number of patients (%)
Weight decreased (causally related), grade ≥3 [2, 3]: 0 Number of patients (%)
Acute kidney injury (causally related), any grade ([2]; Total (n = 30)): 1 (3.3) Number of patients (%)
Acute kidney injury (causally related), grade ≥3 ([2]; Total (n = 30)): 1 (3.3) Number of patients (%)
Anemia (causally related), any grade ([2]; Total (n = 30)): 1 (3.3) Number of patients (%)
Anemia (causally related), grade ≥3 ([2]; Total (n = 30)): 1 (3.3) Number of patients (%)
